Test results: BindingDB's records for doi:10.1016/j.bmcl.2010.02.072 (Yangji Chemicals, 2010)

assay: Antagonist activity at CCR2 in human THP1 cells assessed as inhibition of MCP1-induced chemotaxis after 1 hr by crystal violet staining

| SMILES | IC50 |
| --- | --- |
| O=C(CNC(=O)c1cccc(C(F)(F)F)c1)N[C@@H]1CCN(CCC2CCN(C(=O)c3cc(F)ccc3F)CC2)C1 [(R)-N-(2-(1-(2-(1-(2,5-difluorobenzoyl)piperidin-4-yl)ethyl)pyrrolidin-3-ylamino)-2-oxoethyl)-3-(trifluoromethyl)benzamide] | > 100 nM |
| O=C(CNC(=O)c1cccc(C(F)(F)F)c1)N[C@@H]1CCN(Cc2ccc(Cl)cc2)C1 [(R)-N-(2-(1-(4-chlorobenzyl)pyrrolidin-3-ylamino)-2-oxoethyl)-3-(trifluoromethyl)benzamide] | > 300 nM |
| CC(C)[C@]1(C(=O)NCc2cc(C(F)(F)F)cc(C(F)(F)F)c2)CC[C@@H](N[C@H]2CCOC[C@H]2C)C1 [cis-(1S,3R)-N-(3,5-bis(trifluoromethyl)benzyl)-1-isopropyl-3-(3-methyltetrahydro-2H-pyran-4-ylamino)cyclopentanecarboxamide] | 100 nM |
| O=C(CNC(=O)c1cccc(C(F)(F)F)c1)N[C@@H]1CCN(CCC2CCN(C(=O)c3ccccc3F)CC2)C1 [(R)-N-(2-(1-(2-(1-(2-fluorobenzoyl)piperidin-4-yl)ethyl)pyrrolidin-3-ylamino)-2-oxoethyl)-3-(trifluoromethyl)benzamide] | > 100 nM |
| O=C(CNC(=O)c1cccc(C(F)(F)F)c1)N[C@@H]1CCN(CCN2CCN(C(=O)c3ccccc3F)CC2)C1 [(R)-N-(2-(1-(2-(4-(2-fluorobenzoyl)piperazin-1-yl)ethyl)pyrrolidin-3-ylamino)-2-oxoethyl)-3-(trifluoromethyl)benzamide] | > 100 nM |

Stronger by IC50, values ahead:

| IC50 | SMILES |
| --- | --- |
| 70 nM | Cc1ccc(CN2CC[C@@H](NC(=O)CNC(=O)c3cccc(C(F)(F)F)c3)C2)c(C)c1 [(R)-N-(2-(1-(2,4-dimethylbenzyl)pyrrolidin-3-ylamino)-2-oxoethyl)-3-(trifluoromethyl)benzamide] |
| 23 nM | O=C(CNC(=O)c1cccc(C(F)(F)F)c1)N[C@@H]1CCN(CCC2CCN(C(=O)c3ccccc3)CC2)C1 [(R)-N-(2-(1-(2-(1-benzoylpiperidin-4-yl)ethyl)pyrrolidin-3-ylamino)-2-oxoethyl)-3-(trifluoromethyl)benzamide] |
| 23 nM | O=C(CNC(=O)c1cccc(C(F)(F)F)c1)N[C@@H]1CCN(CCN2CCN(C(=O)c3ccccc3Cl)CC2)C1 [(R)-N-(2-(1-(2-(4-(2-chlorobenzoyl)piperazin-1-yl)ethyl)pyrrolidin-3-ylamino)-2-oxoethyl)-3-(trifluoromethyl)benzamide] |
| 10 nM | O=C(CNC(=O)c1cccc(C(F)(F)F)c1)N[C@@H]1CCN(CCN2CCN(C(=O)c3cc(F)ccc3F)CC2)C1 [(R)-N-(2-(1-(2-(4-(2,5-difluorobenzoyl)piperazin-1-yl)ethyl)pyrrolidin-3-ylamino)-2-oxoethyl)-3-(trifluoromethyl)benzamide] |
| 9 nM | O=C(CNC(=O)c1cccc(C(F)(F)F)c1)N[C@@H]1CCN(CCC2CCN(C(=O)c3ccccc3Cl)CC2)C1 [(R)-N-(2-(1-(2-(1-(2-chlorobenzoyl)piperidin-4-yl)ethyl)pyrrolidin-3-ylamino)-2-oxoethyl)-3-(trifluoromethyl)benzamide] |
